The target of data set [1] is T1, purified HHAT (Homo sapiens, UniProt Q5VTY9).
T1 construct: made in house
Kind of data set: Acyl-cLIP assay, inhibition of purified HHAT. The data set is classed as biochemical. Particulars: for IC50: purified HHAT, read-out: Acyl-cLIP Assay IC50 (CI95). As to the method: The inhibitory potency of all 50 compounds against purified HHAT was quantified using the acylation-coupled lipophilic induction of polarization (acyl-cLIP) assay recently developed in our lab, a universally applicable assay for high-throughput analysis of protein–lipid transferases and hydrolases.[31],[40] In brief, in this assay a fluorescently labeled peptide based on the N-terminal sequence of SHH is incubated with N-dodecyl β-D-maltoside (DDM) solubilized purified HHAT, palmitoyl-CoA, and HHAT inhibitors. Binding of the lipidated peptide product to the DDM micelle results in decreased tumbling rate and an increase in polarization of fluorescence emission, enabling facile quantification of HHAT activity. Initially, % HHAT inhibition was determined at 50 μM and 25 μM for all analogues. […] HHAT is a 12-pass TM protein,[14] and we considered whether lipophilicity might bias inhibition; pIC50 values were compared to calculated log D, which indicated no significant correlation (SI, Table S1 and Figure S2). We concluded that lipophilicity is not a general driver of HHAT inhibitory potency.
The acyl-cLIP assay has been described previously.[40] Briefly, SHH-FAM peptide was diluted in buffer A (100 mM MES, 20 mM NaCl, 1 mM DTT, 1 mM TCEP, 0.1% BSA, pH 6.5) to a concentration of 2 μM. Palmitoyl-CoA (Sigma-Aldrich) was diluted in buffer A to 7.5 μM and recombinant HHAT (obtained by following the published protocol[14]) in buffer B (20 mM HEPES, 350 mM NaCl, 1% DDM, 5% glycerol, pH 7.3) diluted to 44 μg/mL. 1.5 μL of a 50 mM inhibitor DMSO stock was diluted with 18.5 μL of DMSO and further serial diluted (1:1). For each condition, 6 μL of the HHAT working stock and […] of the SHH-peptide working stock were mixed with 3 μL of the corresponding inhibitor concentration or DMSO vehicle. Twelve μL/well of this mixture was split into four wells of a black 384 well plate. To start the reaction, 8 μL of the Pal-CoA working stock were added to each well and fluorescence anisotropy and the total fluorescence recorded on an EnVision Xcite 2104 (PerkinElmer) over 30 min (emission filter 1 = FITC FP P-pol 535; emission filter 2 = FITC S-pol 535; excitation filter: FITC FP 480; measurement height = 6.5 mm; detector gain = 0; high concentration gain). Initial rate constants were determined by linear regression and normalized to DMSO control and samples with buffer B instead of HHAT. IC50 values were extracted from the corresponding dose response curves using a “sigmoidal dose response (variable slope)” model in GraphPad Prism 5 (GraphPad Software, Inc.).

Data set [2] in a line: MTS assay, cytotoxicity (72 h). In kind it is cell-based. Particulars: human, HEK293a SHH+ cells, 72 h; for CC50 at 72 h: read-out: MTS Assay (HEK293a SHH+) CC50 (CI95). As to the method:
The survival of HEK293a SHH^+ cells is independent of HH signaling,[35] therefore, the cytotoxicity of analogues was tested using the MTS assay to investigate off-target toxicity. In this assay, HEK293a SHH^+ cells were treated with DMSO vehicle or varying concentrations of analogues for 72 h. Subsequently, a mixture of 1-methoxy phenazine methosulfate (PMS) and [3-(4,5-dimethylthiazol-2-yl)-5-(3-carboxymethoxyphenyl)-2-(4-sulfophenyl)-2H-tetrazolium] (MTS) was added to enable quantification of cell number via colorimetric analysis. […] Compounds 3, 17, 19, 32, 34, 38, and 45, which all contain a 2-((2-methylbutyl)amino)acetyl, were toxic to HEK293a SHH^+ cells, as were ureas 26, 40, and 41.
HEK293a SHH^+ cells were plated at 5000 cells/well in a 96-well plate (Nunc) using a volume of 50 μL/well and cultured for 24 h as described. Cells were treated with 100 μL/well of either DMSO vehicle, Puromycin (2 μg/mL), or stated analogues (0.14–100 μM final) in DMEM supplemented with 10% FBS. After 72 h, 20 μL/well of a mixture of 1-methoxy phenazine methosulfate (PMS) and [3-(4,5-dimethylthiazol-2-yl)-5-(3-carboxymethoxyphenyl)-2-(4-sulfophenyl)-2H-tetrazolium] (MTS) at a ratio of MTS/PMS = 2/0.92 mg/mL in PBS was added and the plates were incubated for 3 h at 37 °C. Subsequently, the absorption at 490 nm was recorded using an EnVision Xcite 2104 (PerkinElmer), and the response was normalized to vehicle control and Puromycin treated samples. Dose response curves were fitted to a “sigmoidal dose response (variable slope)” model using GraphPad Prism 5 (GraphPad Software, Inc.).
A general note: Tetrazolium dyes change colour on reduction, which living cells bring about.

Structures are written as SMILES. A value given as a limit tells only on which side of the number the result lay.

T1 sequence (Q5VTY9 whole entry): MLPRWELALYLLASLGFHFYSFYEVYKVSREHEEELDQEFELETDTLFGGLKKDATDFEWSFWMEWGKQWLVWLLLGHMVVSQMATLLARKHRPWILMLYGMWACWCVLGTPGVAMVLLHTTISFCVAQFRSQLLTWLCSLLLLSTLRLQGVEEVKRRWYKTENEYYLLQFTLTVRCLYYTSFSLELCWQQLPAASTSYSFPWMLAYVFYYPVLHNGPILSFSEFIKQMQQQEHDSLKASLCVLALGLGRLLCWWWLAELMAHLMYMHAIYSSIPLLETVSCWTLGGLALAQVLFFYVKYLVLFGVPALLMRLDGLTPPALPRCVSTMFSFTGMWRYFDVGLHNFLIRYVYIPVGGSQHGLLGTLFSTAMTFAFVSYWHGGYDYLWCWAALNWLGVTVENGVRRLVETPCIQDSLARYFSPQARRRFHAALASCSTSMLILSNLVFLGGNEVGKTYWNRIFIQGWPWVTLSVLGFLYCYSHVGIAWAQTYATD

Consider `O=C([C@@H]1CCCN1)N1CCc2sccc2C1c1ccccc1` (mixture of isomers) [Compound 9, (S)-4-Phenyl-5-prolyl-4,5,6,7-tetrahydrothieno[3,2-c]pyridine], for which, in data set [1], the inhibition at 25 µM worked out at 4 ± 5%, the inhibition at 50 µM stood at 30 ± 2% and the IC50 was over 25 µM. In data set [2], this compound came in with a viability at 72 h, 12.5 µM of 90 ± 5% and a viability at 72 h, 25 µM of 81 ± 5%.

Regarding `CC(C)CNCC(=O)N1CCc2ccccc2C1c1ccccc1` (stereo in doubt) [Compound 42, (S)-2-((2-Methylpropyl)amino)-1-(1-phenyl-3,4-dihydroisoquinolin-2(1H)-yl)ethan-1-one], in data set [1], the “HHAT inhibition in the acyl-cLIP assay” value is “no inhibitory activity”, the inhibition at 25 µM is 6 ± 2%, the inhibition at 50 µM was 7 ± 2% and the IC50 is over 100 µM. In data set [2], the CC50 at 72 h was over 100 µM; the viability at 72 h, 12.5 µM was determined as 92 ± 4%; the viability at 72 h, 25 µM came out at 91 ± 2%.

For the compound `Clc1ccc(OCC2NCCc3sccc32)cc1` (stereo not shown) [Compound 1], in data set [1], the “HHAT inhibition in the acyl-cLIP assay” value was “inactive”, the inhibition at 25 µM is 16 ± 5%, the inhibition at 50 µM amounted to 2 ± 2% and the IC50 is over 25 µM. In data set [2], this compound displayed a viability at 72 h, 12.5 µM of 95 ± 3% and a viability at 72 h, 25 µM of 84 ± 4%.

Consider `c1ccc(C2NCCc3sccc32)cc1` (stereo not shown) [Compound 4], for which, in data set [1], the “HHAT inhibition in the acyl-cLIP assay” value is “inactive”, the inhibition at 25 µM was 5 ± 3%, the inhibition at 50 µM is -16 ± 16% and the IC50 is over 25 µM. In data set [2], this compound had a viability at 72 h, 12.5 µM of 90 ± 2% and a viability at 72 h, 25 µM of 84 ± 3%.

`CC(=S)N1CCc2sccc2C1c1ccccc1` (stereo not shown) [Compound 6]: in data set [1], the inhibition at 25 µM is 44 ± 7%, the inhibition at 50 µM amounted to 38 ± 2% and the IC50 is over 25 µM. In data set [2], this compound gave a viability at 72 h, 12.5 µM of 27 ± 2% and a viability at 72 h, 25 µM of 29 ± 5%.

In the case of `C[C@H](N)C(=O)N1CCc2sccc2C1c1ccccc1` (stereo partly drawn) [Compound 7, (2S)-2-Amino-1-(4-phenyl-6,7-dihydrothieno[3,2-c]pyridin-5(4H)-yl)propan-1-one], in data set [1], the inhibition at 25 µM is 42 ± 1% and the inhibition at 50 µM came to 67 ± 3%. In addition, in data set [2], the viability at 72 h, 12.5 µM was determined as 99 ± 3% and the viability at 72 h, 25 µM worked out at 74 ± 4%.

Take `CC(C)[C@H](N)C(=O)N1CCc2sccc2C1c1ccccc1` (stereo partly drawn) [Compound 8, (2S)-2-Amino-3-methyl-1-(4-phenyl-6,7-dihydrothieno[3,2-c]pyridin-5(4H)-yl)butan-1-one]: in data set [1], the inhibition at 25 µM amounted to 9 ± 4%, the inhibition at 50 µM was 7 ± 11% and the IC50 is over 25 µM. In data set [2], this compound showed a viability at 72 h, 12.5 µM of 92 ± 3% and a viability at 72 h, 25 µM of 92 ± 3%.

Consider `N[C@H](C(=O)N1CCc2sccc2C1c1ccccc1)c1ccccc1` (stereo partly drawn) [Compound 10, (2S)-2-Amino-2-phenyl-1-(4-phenyl-6,7-dihydrothieno[3,2-c]pyridin-5(4H)-yl)ethan-1-one], for which, in data set [1], the inhibition at 25 µM worked out at 18 ± 1%, the inhibition at 50 µM came to 21 ± 7% and the IC50 was over 25 µM. In data set [2], this compound came in with a viability at 72 h, 12.5 µM of 74 ± 3% and a viability at 72 h, 25 µM of 43 ± 2%.

Consider `N[C@@H](Cc1ccccc1)C(=O)N1CCc2sccc2C1c1ccccc1` (stereo partly drawn) [Compound 11, (2S)-2-Amino-3-phenyl-1-(4-phenyl-6,7-dihydrothieno[3,2-c]pyridin-5(4H)-yl)propan-1-one], for which, in data set [1], the inhibition at 25 µM is -6 ± 3%, the inhibition at 50 µM is -2 ± 6% and the IC50 is over 25 µM. In data set [2], this compound yielded a viability at 72 h, 12.5 µM of 46 ± 2% and a viability at 72 h, 25 µM of 38 ± 1%.

For the compound `CCCCCCCC(=O)N1CCc2sccc2C1c1ccccc1` (stereo not shown) [Compound 13, 1-(4-Phenyl-6,7-dihydrothieno[3,2-c]pyridin-5(4H)-yl)octan-1-one], in data set [1], the “HHAT inhibition in the acyl-cLIP assay” value is recorded as “loss of activity”, the inhibition at 25 µM amounted to 6 ± 6%, the inhibition at 50 µM was 4 ± 6% and the IC50 was over 25 µM. For the same compound, in data set [2], the viability at 72 h, 12.5 µM amounted to 47 ± 1% and the viability at 72 h, 25 µM was found to be 35 ± 2%.

Regarding `Cc1cccc(C2NCCc3sccc32)c1` (stereo not shown) [Compound 14], in data set [1], the “HHAT inhibition in the acyl-cLIP assay” value is “inactive”, the inhibition at 25 µM was determined as 5 ± 3%, the inhibition at 50 µM is -16 ± 16% and the IC50 was over 25 µM. Further, in data set [2], the viability at 72 h, 12.5 µM came to 72 ± 3% and the viability at 72 h, 25 µM was 74 ± 3%.

`C=CCN1CCc2sccc2C1c1cccc(C)c1` (stereo not shown) [Compound 15]: in data set [1], the “HHAT inhibition in the acyl-cLIP assay” value is recorded as “no inhibitory effect”, the inhibition at 25 µM is -1 ± 5%, the inhibition at 50 µM is -5 ± 9% and the IC50 was over 25 µM. In data set [2], this compound gave a viability at 72 h, 12.5 µM of 81 ± 2% and a viability at 72 h, 25 µM of 74 ± 2%.

Turning to `Cc1cccc(C2NCCc3sccc32)n1` (stereo not shown) [Compound 20], in data set [1], the “HHAT inhibition in the acyl-cLIP assay” value was “inactive”, the inhibition at 25 µM stood at 9 ± 10%, the inhibition at 50 µM was -2 ± 19% and the IC50 was over 25 µM. In addition, in data set [2], the viability at 72 h, 12.5 µM was 82 ± 2% and the viability at 72 h, 25 µM amounted to 68 ± 3%.

Take `CC(=O)N1CCc2sccc2[C@H]1c1cccc(C)n1` [Compound 27, (S)-1-(4-(6-Methylpyridin-2-yl)-6,7-dihydrothieno[3,2-c]pyridin-5(4H)-yl)ethan-1-one]: in data set [1], the “HHAT inhibition in the acyl-cLIP assay” value is “no inhibitory activity”, the inhibition at 25 µM is 4 ± 7%, the inhibition at 50 µM was 27 ± 6% and the IC50 is over 100 µM. Further, in data set [2], the CC50 at 72 h was over 100 µM; the viability at 72 h, 12.5 µM came to 90 ± 4%; the viability at 72 h, 25 µM is 89 ± 3%.

For the compound `CC(=O)N1CCc2sccc2C1c1ccccc1O` (stereo not shown) [Compound 33], in data set [1], the inhibition at 25 µM came out at 24 ± 1%, the inhibition at 50 µM came to 31 ± 1% and the IC50 is over 25 µM. Besides, in data set [2], the CC50 at 72 h was over 100 µM; the viability at 72 h, 12.5 µM stood at 88 ± 3%; the viability at 72 h, 25 µM stood at 87 ± 5%.

As for `CC(=O)N1CCc2sccc2C1C1CCCCC1` (stereo not shown) [Compound 35], in data set [1], the “HHAT inhibition in the acyl-cLIP assay” value is given as “loss of activity”, the inhibition at 25 µM amounted to 6 ± 7%, the inhibition at 50 µM came out at 8 ± 7% and the IC50 is over 25 µM. In data set [2], this compound came in with a viability at 72 h, 12.5 µM of 54 ± 2% and a viability at 72 h, 25 µM of 59 ± 3%.

For the compound `CCC(C)CNCC(=O)N1CCc2sccc2C1C1CCCCC1` (stereo not shown) [Compound 36, 1-(4-Cyclohexyl-6,7-dihydrothieno[3,2-c]pyridin-5(4H)-yl)-2-((2-methylbutyl)amino)ethan-1-one], in data set [1], the “HHAT inhibition in the acyl-cLIP assay” value is on record as “loss of activity”, the inhibition at 25 µM was determined as 24 ± 1%, the inhibition at 50 µM amounted to 24 ± 14% and the IC50 is over 25 µM. In data set [2], the viability at 72 h, 12.5 µM was 47 ± 4% and the viability at 72 h, 25 µM was determined as 25 ± 1%.

As a reminder, the inhibition is the relative decrease from the control value, in per cent. The term IC50 denotes the concentration that gives 50% inhibition. As a reminder, the viability is a per cent measure of how many cells are alive, often set against a control. A high value points to less harm to the cells. In general, CC50 refers to the concentration giving 50% cytotoxicity.

The values above are taken from paper PMC10823475, “Design, Synthesis, and Evaluation of Inhibitors of Hedgehog Acyltransferase” (Journal of Medicinal Chemistry, 2024).
